Laboratory results: US20090221610A1, “Compositions and Methods for Treating Cognitive Disorders” (Yale University, priority 2006, published 2009)
“Also recorded” adds a separate entry of the source.

Key:
PFC neurons = assay: Single neuron recording and iontophoresis in monkeys performing a spatial WM (ODR) task; type: in vivo, rhesus monkeys; details: for Decreased: percent of neurons, spatial delay-related firing / Un-changed: number of neurons, spatial delay-related firing / Un-changed: percent of neurons, spatial delay-related firing / Decreased: number of neurons, spatial delay-related firing / Increased: percent of neurons, spatial delay-related firing / Increased: number of neurons, spatial delay-related firing of PFC neurons / Increased: number of neurons, spatial delay-related firing: iontophoresis; for Increased: number of neurons, spatial delay-related firing of PFC neurons: low dose 5-15 nA (text: ZD7288 10 nA); for Reversal of the enhancing effects of guanfacine on delay-related activity: co-iontophoresis with guanfacine (yohimbine 15 nA; Sp-cAMPS 10 nA); for Reversal: number of neurons / Reversal: percent of neurons / No Reversal: number of neurons / No Reversal: percent of neurons: co-iontophoresis; for Increased: number of neurons, spatial delay-related firing: no dose in table (text: Sp-cAMPS 10 nA, Rp-cAMPS 40-50 nA)
Description: Studies were performed on 4 adult male rhesus monkeys trained on the spatial ODR task (FIG. 3). Iontophoretic electrodes, neuronal recording and drug delivery were as described in (Wang et al., 2004) and also are provided in the Supplemental Material. Guanfacine, yohimbine, ZD7288(Tocris, Ellisville, Mo.) and etazolate (Sigma, St. Louis, Mo.) were dissolved at 0.01M in triple-distilled water (adjusted with HCl to pH 3.5-4.0). Sp-cAMP and Rp-cAMP (Sigma) were dissolved at 0.01M in triple-distilled water (adjusted with NaOH to pH 9). Two-way ANOVA was used to examine the spatial tuned task-related activity with regard to: (1) different periods of the task (cue, delay, response vs. fixation) and (2) different cue locations. One-way ANOVAs were employed to assess the effect of the drug application on cells displaying delay-related activity. Monkeys performed an oculomotor spatial delayed response (ODR) task, illustrated in FIG. 3A. The ODR task requires the monkey to make a memory-guided […] to a visuo-spatial target. Stimulus position was randomized over trials to ensure use of WM. Neurons were recorded from area 46 of the dorsolateral PFC (FIG. 3B) as the monkey performed the task. […] In the present study, 128 neurons with delay-related mnemonic activity were isolated and subjected to iontophoretic application of pharmacological agents See Table 1, below summarizing the effects of drugs (Table 1) and their reversal (Table 2) on PFC neuronal response.

rat prefrontal cortex [1] = assay: Spatial delayed alternation task in a T maze after intra-PFC infusion; type: in vivo
ferret PFC slices = assay: In vitro extracellular multiple unit and intracellular recording from PFC slices; type: cell-based; details: bath application 20-50 micromolar
Description: Methods for extracellular multiple unit and intracellular recording in ferret PFC slices have been detailed elsewhere (Shu et al., 2003). Slices (0.4 mm) from 2-4 month old ferret PFC were maintained in either an interface or submerged chamber (35-36° C.) in a slice solution containing (in mM): NaCl, 126; KCl, 3.1; MgSO4, 1; NaHPO4, 1.25; CaCl2, 1; NaHCO3, 26; dextrose, 10, and aerated with 95% O2, 5% CO2 to a final pH of 7.4. Simultaneous extracellular multiple unit and intracellular recordings were performed in layer 5 with the electrodes approximately […] of one another. Intracellular micropipettes contained 2 M potassium acetate, while whole cell recording pipettes contained KGluconate 140, KCl 3, MgCl2 2, Na2ATP 2, HEPES 10, and EGTA 0.2. The cellular and network consequences of modulation of HCN channels was examined with intracellular and whole cell recordings from layer 5 pyramidal cells simultaneously with extracellular multiple unit recordings in the ferret PFC in vitro (n=55, see FIG. 6G). Under normal conditions, these slices generate Up and Down states, consisting of repeating periods of recurrent network activity (Shu et al., 2003).

rat prefrontal cortex [2] = assay: Spatial delayed alternation task in a T maze after intra-PFC infusion; type: in vivo; remark: listed apart in the source
Description: Rats (n=5) were tested on the spatial delayed alternation task in a T maze, a classical test of prefrontal cortical function in rodents (Larsen and Divac, Physiolog Psychol, 6:15-17, 1978). Rats were trained on the task, and then implanted with cannula aimed at the prelimbic prefrontal cortex as described in (Ramos, et al., Neuron, 40:835-845, 2003). Following recovery from surgery, rats were infused with saline (0.5 μl), the Ih channel blocker ZD7288 (0.0001 μg/0.5 μl), the cAMP analog […]), or a combination of ZD7288 (0.0001 μ[…] (0.21 nmol). There was at least one week washout between drug treatments, and a within subjects comparison was performed (2 way analysis of variance with repeated measures with user defined contrasts). […] Male Sprague Dawley rats (240-260 g; Taconic, Germantown, N.Y.) were trained on the delayed alternation task as described in Ramos et al., 2003. Guide cannula were implanted dorsal in prelimbic PFC (AP: +3.2 mm; ML: ±0.75 mm; DV: -4.2 mm). For infusions, needles reached to 4.5 mm DV; infused at 0.25 μL/min for 2 min. Drug or vehicle was administered in a counterbalanced order with at least 1 week between infusions. […] The experimenter was blind to treatment.

[3] = no dose in table (yohimbine 15 nA, Sp-cAMPS 10 nA, etazolate 25 nA)
[4] = iontophoresis 10 nA, example neuron

Structure (SMILES) | Decreased: percent of neurons, spatial delay-related firing (PFC neurons; no dose in table) | Un-changed: number of neurons, spatial delay-related firing (PFC neurons; no dose in table) | Un-changed: percent of neurons, spatial delay-related firing (PFC neurons; no dose in table) [%] | Decreased: number of neurons, spatial delay-related firing (PFC neurons; [3]) | Effect on delay-related firing for the preferred direction (PFC neurons; [4]) | Increased: percent of neurons, spatial delay-related firing (PFC neurons; 5-15 nA) | Un-changed: number of neurons, spatial delay-related firing (PFC neurons; 5-15 nA) | Un-changed: percent of neurons, spatial delay-related firing (PFC neurons; 5-15 nA) [%] | Decreased: percent of neurons, spatial delay-related firing (PFC neurons; 20-50 nA) | Decreased: number of neurons, spatial delay-related firing (PFC neurons; high dose 20-50 nA) | Increased: number of neurons, spatial delay-related firing of PFC neurons (PFC neurons) | Reversal of the enhancing effects of guanfacine on delay-related activity (PFC neurons) | Reversal: number of neurons (PFC neurons; reversal of guanfacine) | Reversal: percent of neurons (PFC neurons; reversal of guanfacine) | Increased: percent of neurons, spatial delay-related firing (PFC neurons; no dose in table) | Increased: number of neurons, spatial delay-related firing (PFC neurons) | other results
CCOC(=O)c1cnc2c(cnn2CC)c1NN=C(C)C [Etazolate] | (83%) | 2 | 17 | 10 |  |  |  |  |  |  |  |  |  |  |  |  | 
NC(N)=NC(=O)Cc1c(Cl)cccc1Cl [Guanfacine, N-(diaminomethylidene)-2-(2,6-dichlorophenyl)acetamide] |  |  |  |  | substantially increased; also recorded: significantly increased | (80%) | 7 | 20 | (100%) | 9 | 28 |  |  |  |  |  | Effect on delay-related firing (PFC neurons; iontophoresis 50 nA, higher dose): did not have enhancing effects; Spatial working memory performance (percent correct, delayed alternation) (rat prefrontal cortex [1]; aged rats (n=9), prefrontal infusion 0.0001 μg): significantly different than saline
COC(=O)[C@@H]1[C@H]2C[C@H]3c4[nH]c5ccccc5c4CCN3C[C@@H]2CC[C@@H]1O [Yohimbine] | (100%) |  |  | 15 |  |  |  |  |  |  |  | reversed | 6 | (100%) |  |  | Effect on delay-related activity for the preferred direction (PFC neurons; iontophoresis 15 nA): dramatically suppressed
CCN(c1ccccc1)c1cc(NC)[n+](C)c(C)n1.[Cl-] [ZD7288] |  |  |  |  | further enhanced | (70%) | 8 | 30 | (100%) | 10 | 19 |  |  |  |  |  | Reversal of the reduction in delay-related firing induced by etazolate (PFC neurons; co-iontophoresis with etazolate): fully reversed; Reversal of the yohimbine suppression of delay-related activity (PFC neurons; co-iontophoresis with yohimbine (15 nA)): significantly reversed; No Reversal: number of neurons (PFC neurons; reversal of etazolate): 2; No Reversal: percent of neurons (PFC neurons; reversal of etazolate): 25%; Reversal: number of neurons (PFC neurons; reversal of etazolate): 6; Reversal: percent of neurons (PFC neurons; reversal of etazolate): (75%); No Reversal: number of neurons (PFC neurons; reversal of yohimbine): 2; No Reversal: percent of neurons (PFC neurons; reversal of yohimbine): 31%; Reversal: number of neurons (PFC neurons; reversal of yohimbine): 7; Reversal: percent of neurons (PFC neurons; reversal of yohimbine): (71%); Reversal: number of neurons (PFC neurons; reversal of yohimbine, listed as ZD 7288): 5; Effect on delay-related firing for the preferred direction (PFC neurons; iontophoresis 5 nA, example neuron): significantly increased; Effect on delay-related firing (PFC neurons; iontophoresis 40 nA, highest concentration): decreased rather than increased firing; Number of action potentials generated by a depolarizing current pulse (ferret PFC slices): increase; Up-state action potential discharge (ferret PFC slices; from 1.8±1.7 Hz, n=9): 9.2±4.9 Hz; Apparent input resistance (ferret PFC slices; from 18.6±7.5, n=10): 36±10.8 Mohms; Duration of the recurrent network activity of the Up state (ferret PFC slices; from an average of 0.84 (±0.25) before): 4.1 (±1.3) sec; Increase in duration of the recurrent network activity of the Up state (ferret PFC slices; n=10): ~500%; Membrane potential of layer 5 pyramidal neurons (ferret PFC slices; n=12): progressive hyperpolarization; Spatial working memory performance (percent correct, delayed alternation) compared to saline (rat prefrontal cortex [2]; intra-PFC infusion 0.0001 μg/0.5 μl, n=5): significantly improved
Nc1ncnc2c1ncn2[C@@H]1O[C@@H]2COP(O)(=S)O[C@H]2[C@H]1O (stereo partly drawn) [Rp-cAMP] |  | 4 | 33 |  |  |  |  |  |  |  |  |  |  |  | (67%) | 8 | Effect on delay-related firing for the preferred direction (PFC neurons; iontophoresis 40-50 nA): specifically increased; Increased: number of neurons, spatial delay-related firing (PFC neurons; listed as Rp-cAMPS): 8
Nc1ncnc2c1ncn2[C@@H]1O[C@@H]2COP(O)(=S)O[C@H]2[C@H]1O (stereo partly drawn) [Sp-cAMP] | (48%) | 5 | 19 | 13 | significantly decreased |  |  |  |  |  |  | significantly reversed | 6 | (67%) | (33%) | 9 | Reversal: number of neurons (PFC neurons; reversal of Rp-cAMP): 6; Reversal: percent of neurons (PFC neurons; reversal of Rp-cAMP): (100%); No Reversal: number of neurons (PFC neurons; reversal of guanfacine): 3; No Reversal: percent of neurons (PFC neurons; reversal of guanfacine): 33%; Increased: number of neurons, spatial delay-related firing (PFC neurons; listed as Sp-cAMPS): 9; Un-changed: number of neurons, spatial delay-related firing (PFC neurons; no dose in table, listed as Sp-cAMPS): 5; Reversal of the enhancing effect of Rp-cAMPS on delay-related firing (PFC neurons; subsequent co-iontophoresis with Rp-cAMPS): reversed; Effect of co-infusion on the guanfacine effects on working memory (rat prefrontal cortex [1]; aged rats, co-infusion with guanfacine): reversed; Effect of co-infusion on the ZD7288 improvement of working memory (rat prefrontal cortex [2]; co-infusion 0.21 nmol with ZD7288 0.0001 μg, listed as Sp-cAMPS): significantly reversed; also recorded: blocked; also recorded: significantly reduced; Spatial working memory performance compared to saline (rat prefrontal cortex [2]; intra-PFC infusion 0.21 nmol/0.5 μl alone): no effect on its own
